Test results taken from a melting point compilation (Tetko et al.; mined from patent text by program, amines drawn as free bases though some values may be those of a salt).

In the case of `CC(C(=O)O)c1ccc(CC2CCCC2=NO)cc1` (centres undefined), the melting point is reported as 146 to 148 °C.
Molecule `N#Cc1cc(-c2ccc(Cl)s2)[nH]c1Cl` has a melting point of over 200 °C.
`CCOC(=O)c1cc(CC)sc1Nc1ccc(Br)cc1[N+](=O)[O-]` showed a melting point of 76 to 78 °C.
Molecule `CC(=O)Oc1ccc(C(=O)Oc2ccc(OC(=O)c3ccc(OC(C)=O)cc3)cc2)cc1` has a melting point of 185 to 186 °C.
Work on `COc1ccc(-c2c(Cl)c(CNC3CC3)nc3sc4c(c23)CCN(Cc2ccccc2)C4)cc1OC` yielded a melting point of 131 to 132 °C.
`N=C(Cc1ccccc1)N1CC2C(=O)CCC(c3ccccc3)(c3ccccc3)C2C1` (centres undefined) showed a melting point of 195 °C.
In the case of `CC(C)=CCOC(C)C1CCC2=C3C=CC4C(C)(C)C(O)CCC4(C)C3CCC21C` (centres undefined), the melting point is reported as 171 to 174 °C.
`COc1ccc(C2=NN(C3CCNCC3)C(=O)C(C)(C)C2)cc1OC` showed a melting point of 126 to 128 °C.
`CNCc1ccc([C@H]2CC[C@H](OC(=O)Cc3ccc(Cl)cc3)CC2)cc1` showed a melting point of 65 to 67 °C.
For `Clc1ccc2[nH]c3c(c2c1)CCC1(C3)OCCO1`, the melting point was 128 to 138 °C.
Molecule `COCc1cnc2c(NC(=O)c3ccccc3[N+](=O)[O-])cccc2c1N1CCN(C)C1=O` has a melting point of 156 to 159 °C.
Molecule `CC(CCC(=O)O)C(=O)NC1(C(=O)O)CCCC1` (centres undefined) has a melting point of 170 to 172 °C.
With `CC1(C)OC(=O)c2c(cccc2-c2ccccc2)O1` the melting point was 158 to 163 °C.
`OC(c1cc(Cl)cc(Cl)c1)C(F)(F)C(F)(F)F` (centres undefined) gave a melting point of 71 to 73 °C.
For `O=C1NC(c2ccccc2)N(CCN2CCN(c3ccccc3)CC2)c2ccccc21` (centres undefined), the melting point was 142 to 144 °C.
Work on `O=c1cc(O)cc(CBr)o1` yielded a melting point of 77 to 78 °C.
`COc1cc(N)ccc1S(=O)(=O)n1c(=O)n(C2CCCCC2)c2cc(Cl)ccc21` showed a melting point of 211 °C.
In the case of `CC(=O)Nc1ccccc1Sc1ccc([N+](=O)[O-])cc1[N+](=O)[O-]`, the melting point is reported as 183 to 184 °C.
`N=C(N)N1CC(c2ccccc2)C(c2ccc(Cl)cc2)=N1` (centres undefined) gave a melting point of 187 to 189 °C.
With `Cc1cc(C)nc(NC(=O)NS(=O)(=O)c2cccc3c2OC(C)(C)C3)n1` the melting point was 203 to 206 °C.
`CN(C)C(=O)c1nc(-c2cccnc2)nc2c1[nH]c(=O)n2-c1ccccc1` showed a melting point of 250 to 252 °C.
Molecule `N#CC1CN1C(=O)NC(=O)c1ccc(Cl)cc1` (centres undefined) has a melting point of 160 to 162 °C.
`CCc1ccc2ncc(CO)c(OC(C)C)c2c1` gave a melting point of 43 to 46 °C.
`CC(=O)c1cccc2nc[nH]c12` gave a melting point of 220 to 223 °C.
Work on `NC(N)=Nc1nc(-c2cccc(CNC(=O)C3CCCNC3)n2)cs1` (centres undefined) yielded a melting point of 227 to 228 °C.
Work on `O=c1oc2cc(Cl)cnc2n1CO` yielded a melting point of 137 to 139 °C.
In the case of `COc1ccc2c(c1)CN(CCc1ccc(N)cc1)CC2`, the melting point is reported as 82 to 84 °C.
`C=CCNC(=O)Oc1cc(-n2c(=O)cc(C(F)(F)F)n(C)c2=O)c(F)cc1Cl` gave a melting point of 98 to 100 °C.
Work on `Cc1nnc(-c2ccc3occ(C(=O)O)c3c2)o1` yielded a melting point of 252 to 253 °C.
Molecule `CN(C)c1ccc([N+](=O)[O-])c(CO)c1` has a melting point of 138 to 139 °C.
For `Oc1ccc(-c2nsc3ccccc23)c(Cl)c1Cl`, the melting point was 224 to 226 °C.
Molecule `Cc1c(NC(=O)c2ccc(OC[C@@H]3CCCO3)cc2)ccc2cc(CNC3CCC3)cnc12` has a melting point of 142 to 144 °C.
`CC(C)(C)OC(=O)Nc1cc(OC(C)(C)C)c(C#Cc2ccc(F)cc2)cc1N` showed a melting point of 183 °C.
`Nc1ccccc1Sc1ncc[nH]1` gave a melting point of 135 to 137 °C.
In the case of `C=C(C)Cc1cc(C=O)cc(OC)c1O`, the melting point is reported as 53 to 54 °C.
With `O=C(NNC(=S)Nc1cccc(Br)c1)c1cccc([N+](=O)[O-])c1` the melting point was 163 to 165 °C.
Molecule `O=C(NCC12CC3CC(CC(C3)C1)C2)c1cc(O)ccc1Cl` has a melting point of 263 to 264 °C.
With `O=C(O)c1cccnn1` the melting point was 156 to 158 °C.
With `Cc1sc(-c2cccs2)nc1O` the melting point was 152 to 153 °C.
In the case of `COCC(COC)Oc1cc(Oc2ccc(S(C)(=O)=O)nc2)cc2cc(C3=NCC(CC(N)=O)S3)[nH]c12` (centres undefined), the melting point is reported as 172 to 173 °C.
`COC(=O)c1ccc(C(=O)N(SSN(C(=O)c2ccc(C(=O)OC)cc2)c2ccccc2)c2ccccc2)cc1` gave a melting point of 276 to 278 °C.
For `CCOC(=O)CN(SN(C)C(=O)Oc1cccc2c1OC(C)(C)C2)C(=O)CC`, the melting point was 108 to 109 °C.
In the case of `COc1ccc(C=CC(=O)c2c(OC)cc(OC)cc2OP(=O)(O)O)cc1`, the melting point is reported as 71 to 73 °C.
Work on `Cn1cc(C2=C(c3cn(CCCO)c4ccccc34)C(=O)NC2=O)c2ccccc21` yielded a melting point of 185 to 187 °C.
`C[C@]1(COc2ccc(N3CCC(CCOCc4ccc(OC(F)(F)F)cc4)CC3)cc2)Cn2cc([N+](=O)[O-])nc2O1` gave a melting point of 205 to 207 °C.
In the case of `CCOC(=O)c1ccc2oc(CC)nc2c1`, the melting point is reported as 35 to 37 °C.
For `CC(C)(C)c1ccc2c(c1)CNC2=O`, the melting point was 132 to 134 °C.
For `Nc1ccc(CCN2CCC(Nc3nc4ccccc4n3Cc3ccc(F)cc3)CC2)cc1`, the melting point was 195 °C.
For `COC(=O)c1ccccc1NC(=O)NCc1ccccc1`, the melting point was 140 to 141 °C.
For `CCC(Sc1ccc(CCC(=O)O)c(C)c1)c1ccc2nc(-c3ccc(C(F)(F)F)cc3)sc2c1` (centres undefined), the melting point was 105 to 108 °C.
Work on `CC(C)n1nc(-c2sc(C(=O)NN(C)C)nc2-c2ccc(F)cc2)ccc1=O` yielded a melting point of 169 to 170 °C.
Work on `OCCCc1cnoc1-c1ccc(Cl)c(F)c1` yielded a melting point of 51 to 52 °C.
Molecule `COc1cc(OC)c2ccsc2c1` has a melting point of 78 to 80 °C.
`O=C1CN2Cc3ccccc3-c3cccc1c32` showed a melting point of 199 to 202 °C.
`OC[C@H]1C[C@@H](n2cnc3cc(Cl)c(Cl)cc32)[C@H](O)[C@@H]1O` gave a melting point of 222 to 225 °C.
`COc1cc2nc(N3CCN(c4ccc(Cl)ccc4=O)CC3)nc(N)c2cc1OC` gave a melting point of 202 to 204 °C.
In the case of `COc1cc(Cl)ccc1-c1ccc(C(C)=O)cc1[N+](=O)[O-]`, the melting point is reported as 104 to 106 °C.
In the case of `COC(=O)CCC(C)C1CCC2C3CC=C4C(C)(C)C(O)CCC4(C)C3CCC12C` (centres undefined), the melting point is reported as 136 to 138 °C.
`C=CCN(C(=O)NC(C)(C)C)c1nc(NC(=O)NC(C)(C)C)c2cc([N+](=O)[O-])ccc2n1` gave a melting point of 105 to 106 °C.
With `COc1cc(N2CCCN(C)CC2)ccc1Nc1ncc2ccc(-c3ccccc3OC)n2n1` the melting point was 69 to 77 °C.
Work on `C=CC[C@@H](C(=O)N[C@H](C(=O)N[C@H](C)c1ccccc1)C(C)(C)C)[C@H](OCC)C(=O)OC` yielded a melting point of 131 to 134 °C.
In the case of `CC(C)(O)c1ccc(CNC(=O)c2cccnc2Oc2cccc(S(C)(=O)=O)c2)cc1`, the melting point is reported as 51 to 53 °C.
`Cc1cccc(C2=CCN(c3ccc(F)nn3)CC2)c1` showed a melting point of 105 °C.
In the case of `CCCCCCc1cc2c(s1)-n1c(C)nnc1CN=C2c1cc(OC)c(OC)c(OC)c1`, the melting point is reported as 111 to 113 °C.
Work on `CC(=O)NC[C@H]1CN(c2ccc(N3CCC(N)(C#N)CC3)c(F)c2)C(=O)O1` yielded a melting point of 94 to 96 °C.
Work on `CSc1ccc(CCOCCCCCC(C)NCC(O)c2ccc(O)c(NS(C)(=O)=O)c2)cc1` (centres undefined) yielded a melting point of 133 to 138 °C.
For `CCCCc1nc2ccc(C)c(C(=O)OCC)c2n1Cc1ccc(-c2ccccc2-c2nnn[nH]2)cc1`, the melting point was 164 to 165 °C.
`COC(=O)c1cc(S(C)(=O)=O)ccc1OC` gave a melting point of 113 to 115 °C.
With `CS(=O)(=O)CCN1CCC2(CC1)CC(=O)c1cc(NS(C)(=O)=O)ccc1O2` the melting point was 250 to 251 °C.
`O=[N+]([O-])c1cc(Cl)cc(CO)c1` gave a melting point of 74 to 75 °C.
Work on `CS(=O)C(C)(O)c1ccc(-c2ccccc2)cc1` (centres undefined) yielded a melting point of 160 to 162 °C.
`CCCCc1oc2ccccc2c1C(=O)c1cc(Cl)c(O)c(Cl)c1` showed a melting point of 110 to 114 °C.
Molecule `COC(=O)CCCCNC(=O)C(CO)NS(=O)(=O)c1ccc(Cl)cc1` (racemic) has a melting point of 92 to 94 °C.
`c1ccc(Sc2cc(-c3ccccc3)n[nH]2)cc1` showed a melting point of 99 to 100 °C.
`COC(=O)C1CC(O)CN1C(=O)c1cc(OC)c(OC)c(OC)c1` (centres undefined) showed a melting point of 126 °C.
In the case of `CC1(C)[C@@H](CN2CCCCC2)CC[C@@]1(C)NCC(=O)N1C[C@@H](F)C[C@H]1C#N`, the melting point is reported as 100 to 103 °C.
With `Cc1ccc(CC2(O)CCNCC2)cc1` the melting point was 118 to 121 °C.
For `CC(NC(=S)Nc1ccc(N2CCCCC2)nc1)C(C)(C)C` (centres undefined), the melting point was 151 to 153 °C.
`COc1nc(Cl)cc(I)c1C=O` gave a melting point of 120 to 124 °C.
In the case of `CC1(C)CC1C(=O)NC(=CCCCSc1ncccc1O)C(=O)O` (centres undefined), the melting point is reported as over 70 °C.
For `CN1CCc2ccccc2C1=NNC(=O)Nc1ccc(C(F)(F)F)cc1`, the melting point was 101 to 104 °C.
Molecule `CCCCC[C@@H](CNC(=O)Nc1cccc2c1OC(C)(C)C2)c1cccc2c1OCO2` has a melting point of 161 to 162 °C.
`CCc1c(-c2ccc(OCc3ccccc3)cc2)c2c(C(=O)N(C)C)cc3cccc1n32` showed a melting point of 92 to 95 °C.
With `Cc1ccccc1NC1=CC(=O)NCC1` the melting point was 155 to 158 °C.
`O=c1c2cc(O)ccc2nc(CSc2ncnc3[nH]cnc23)n1-c1ccccc1Cl` showed a melting point of 186 to 214 °C.
In the case of `N#CC1CN1C(=O)c1ccc(-c2ccccc2)cc1` (centres undefined), the melting point is reported as 104 to 106 °C.
`NS(=O)(=O)c1cc(C(=O)O)cc(NCc2ccccc2)c1-c1ccccc1` showed a melting point of 221 to 222 °C.
`CN(C)CCNc1ccnc2cc3c(cc12)OCO3` showed a melting point of 193 to 194 °C.
`N[C@@H](Cc1cccc(OCC(F)(F)F)c1)[C@H](O)c1ccc(F)cc1` (racemic) gave a melting point of 94 to 95 °C.
Work on `NS(=O)(=O)c1ccc(N2CN(C3CCCCC3)CC2=O)c(Cl)c1` yielded a melting point of 188 to 190 °C.
`CSc1nc(N)nc(N2CCc3ccccc3CC2)c1C#N` gave a melting point of 164 to 168 °C.
Molecule `CC1CC2C3CC(F)C4=CC(=O)C=CC4(C)C3C(=O)CC2(C)C1C(=O)COC(=O)C(C)(C)C` (centres undefined) has a melting point of 226 to 227 °C.
Molecule `CC(=O)OCc1ccc2sc(S(N)(=O)=O)cc2c1` has a melting point of 113 to 115 °C.
In the case of `CC(OC(=O)C1CC(=O)c2cc(F)ccc2O1)c1ccccc1` (single isomer, unassigned; (+)), the melting point is reported as 98 °C.
With `NC(=O)CC(=O)c1cn2c3c(cccc13)CCC2` the melting point was 200 to 201 °C.
`CCc1cc(C(=O)c2ccccc2Cl)c(-n2c(C)nnc2CCl)s1` gave a melting point of 109 to 110 °C.
Molecule `ClCCCOc1cccc(OCCCCl)c1` has a melting point of 135 to 136 °C.
In the case of `CCCCCCCCCCCCCCCCNC(=O)OCC(CO)OC` (centres undefined), the melting point is reported as 47.5 to 48 °C.
Molecule `Cc1ccc(C#N)c(NC(C)C)c1` has a melting point of 55 to 57 °C.
`CNC(=O)n1sc(OC(C)C)nc1=O` gave a melting point of 95 °C.
For `CS(=O)(=O)c1ccc(-c2sc(Br)cc2-c2ccc(F)cc2)cc1`, the melting point was 141 to 145 °C.
Molecule `CO/N=C/C1=NNC(=O)N(/N=C/c2cccnc2)C1` has a melting point of 237 to 238 °C.
For `O=C(O)Cc1ccc2c(c1)C(=O)Cc1cccnc1O2`, the melting point was 181 to 184 °C.
`CC(C)(c1ccccc1)C(n1ccnc1)S(=O)c1ccc(Cl)cc1` (centres undefined) gave a melting point of 125 to 127 °C.
